Laboratory results from PubChem BioAssay (NCI).
“And” between values parts separate entries of the source, which are not always exact repeats. Identical values can stand only once.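 Dose response: 5 concentrations. Exposure: 48 h. Format: 96-well plates. Endpoint: linear interpolation; highest concentration if not reached. Abbreviation: GI50, concentration required for 50% inhibition of growth. TGI denotes the concentration required for complete inhibition of growth.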

Key:
Experiment in all cases: growth of human tumour cells (NCI), 48 h
HOP-62 NSCLC = system: HOP-62 NSCLC
M14 melanoma = system: M14 melanoma
MCF7 breast = system: MCF7 breast
MDA-MB-435 = system: MDA-MB-435
NCI-H460 lung = system: NCI-H460 lung
PC-3 prostate = system: PC-3 prostate
SF-295 CNS = system: SF-295 CNS
SNB-19 CNS = system: SNB-19 CNS
UACC-257 melanoma = system: UACC-257 melanoma
UO-31 renal = system: UO-31 renal

Structure (SMILES)	GI50 (HOP-62 NSCLC)	TGI (HOP-62 NSCLC)	GI50 (M14 melanoma)	TGI (M14 melanoma)	GI50 (MCF7 breast)	TGI (MCF7 breast)	GI50 (MDA-MB-435)	TGI (MDA-MB-435)	GI50 (NCI-H460 lung)	TGI (NCI-H460 lung)	GI50 (PC-3 prostate)	TGI (PC-3 prostate)	GI50 (SF-295 CNS)	TGI (SF-295 CNS)	GI50 (SNB-19 CNS)	TGI (SNB-19 CNS)	GI50 (UACC-257 melanoma)	TGI (UACC-257 melanoma)	GI50 (UO-31 renal)	TGI (UO-31 renal)
Cc1ccc(NC(=O)/C=C/c2ccccc2)c(C(N)=O)c1	11.1 µM	> 100 µM	2.12 µM	> 100 µM	3.15 µM	> 100 µM	0.526 µM	2.44 µM	3.46 µM	25.9 µM	4.07 µM	> 100 µM	2.79 µM	> 56.7 µM	5.81 µM	> 100 µM	22.5 µM	> 95.3 µM	10.3 µM	> 60 µM
Cc1ccc(C(=O)Nc2cccc(C(F)(F)F)c2)cc1Nc1nc(-c2cccnc2)nc2c1cnn2C	2.62 µM and 1.04 µM	15.2 µM and > 10 µM	1.05 µM and 0.442 µM	3.66 µM and 3.43 µM	2.42 µM and 1.98 µM	7.65 µM and 6.24 µM	1.64 µM and 1.45 µM	4.74 µM and 4.95 µM	2.84 µM and 2.54 µM	12.5 µM and 7.19 µM	3.05 µM and 2.65 µM	11.1 µM and > 10 µM	2.12 µM and 1.84 µM	4.99 µM and 4.47 µM	4.16 µM and 3.18 µM	17.1 µM and > 10 µM	2.02 µM and 0.875 µM	8.28 µM and 4.76 µM	1.08 µM and 0.477 µM	8.99 µM and 5.11 µM
CC(=O)NC1=C(OS(=O)(=O)c2ccc(C)cc2)CN(C)C1=O		11.9 µM		20 µM		11.7 µM		16.7 µM		7.77 µM		10.1 µM		13.9 µM		14.9 µM		11.8 µM		14.2 µM
Cc1ccc(C2=NOC3=c4ccccc4=CSC3=C2c2ccc([N+](=O)[O-])cc2)cc1	13.6 µM	55.8 µM	18.6 µM	> 100 µM	11.1 µM	88.8 µM	57.9 µM	> 100 µM	16.9 µM	> 100 µM	14.3 µM	65.3 µM	13.3 µM	49.9 µM	17.6 µM	63.7 µM	44.4 µM	> 100 µM	27.8 µM	> 100 µM
CNC(=O)OCc1c(COC(=O)NC)c(C)n(-c2ccc(Br)cc2)c1C		29.1 µM		32.5 µM		25.9 µM		34 µM		24.1 µM		65.8 µM		31.9 µM		44.3 µM		32.3 µM		19.5 µM
C/C(=N\Nc1ccc2ccccc2n1)c1ccccn1	0.09 µM	11 µM	0.0504 µM	1.33 µM	0.102 µM	5.21 µM	0.223 µM	8.09 µM	< 0.0507 µM	3.71 µM		7.23 µM		0.636 µM	0.198 µM	14.3 µM	0.0579 µM	0.326 µM	< 0.0395 µM	0.676 µM
C=CC(=O)N(C)[C@H]1C[C@H]2OC(C)(C1OC)n1c3ccccc3c3c4c(c5c6ccccc6n2c5c31)C(=O)NC4 (stereo partly drawn)	0.0193 µM	0.176 µM	0.115 µM	1.74 µM	0.123 µM	> 50 µM	0.364 µM	3.9 µM	0.0876 µM	1.01 µM	0.182 µM	15.2 µM	0.0815 µM	0.827 µM	0.17 µM	1.71 µM	0.216 µM	1.39 µM	0.018 µM	0.0854 µM
COc1ccc(-c2cc(-c3ccccc3)nc(SCCCC(=O)NO)n2)cc1	0.994 µM	8.88 µM	0.894 µM	3.92 µM	1.9 µM	10 µM	0.995 µM	3.11 µM	0.468 µM	5.65 µM	1.61 µM	8.39 µM	0.826 µM	2.54 µM	2.19 µM	9.27 µM	1.6 µM	8.34 µM	0.239 µM	0.991 µM
CC(C)(C)c1n[nH]c(=S)n(/N=C/c2ccc(F)c(Oc3ccccc3)c2)c1=O	90.1 µM	> 100 µM	42 µM	> 100 µM	40.5 µM	> 100 µM	38 µM	> 100 µM	31 µM	> 100 µM	38.6 µM	> 100 µM	15.3 µM	> 100 µM	40.9 µM	> 100 µM	24.2 µM	68.4 µM	33.9 µM	> 100 µM
C=CC(=O)N1CCN(c2ccc3cccc(NC(=O)c4cnc(C)cn4)c3n2)CC1	4.24 µM	> 100 µM	3.05 µM	21.3 µM	3.44 µM	> 100 µM	3.67 µM	32.9 µM	2.51 µM	19.7 µM	2.86 µM	26.5 µM	13.5 µM	> 100 µM	5.38 µM	> 100 µM	9.21 µM	36.7 µM	0.351 µM	5.14 µM
COC(=O)Cn1c2c(c3c(O)cccc31)C(=O)c1ccccc1-2	> 100 µM	> 100 µM	> 100 µM	> 100 µM	> 100 µM	> 100 µM	> 100 µM	> 100 µM	> 100 µM	> 100 µM	> 100 µM	> 100 µM	> 100 µM	> 100 µM	> 100 µM	> 100 µM	> 100 µM	> 100 µM	> 100 µM	> 100 µM
O=C(N/N=C/c1ccc2c(c1)CCC2)c1ccccc1O		38 µM		> 100 µM		34 µM		51.9 µM		63.2 µM		53.4 µM		36.6 µM		44.7 µM		95.1 µM		94.6 µM
N#C/C(=C\c1c(-c2ccccc2)[nH]c2ccccc12)S(=O)(=O)c1ccccc1	8.06 µM	> 100 µM	2.66 µM	38.2 µM	2.15 µM	18.4 µM	0.287 µM	3.77 µM	2.73 µM	18.3 µM	3.34 µM	> 53.9 µM	2.21 µM	14.6 µM	7.08 µM	> 88.2 µM	17.9 µM	56.2 µM	6.54 µM	> 61.7 µM
CCCn1c(C)nc2c1C(=O)c1ccccc1C2=O	41.3 µM	> 100 µM	40 µM	> 100 µM	30.9 µM	> 100 µM	17.2 µM	32.9 µM	20.4 µM	57.3 µM	11 µM	> 100 µM	13 µM	41.6 µM	53.3 µM	> 100 µM	16.5 µM	49 µM	9.06 µM	60.8 µM
